Source: patent publication US7582681B2, “Synergistic mixtures of 1,2-alkane diols” (Symrise GmbH & Co. KG, priority 2002, dated 2009)
≈ marks a conversion by molar mass, not a printed value.

How the values were obtained:
Type in all cases: cell-based
[1] = test system: Escherichia coli ATCC 8739; assay: Test for adequate preservation (European Pharmacopea), 1,2-diols and 1,2-diol mixtures in O/W emulsion; conditions: 3% diol(s) in O/W emulsion
Procedure: (§1) A test for adequate preservation was carried out in accordance with the European Pharmacopea. The test thus consists of the contamination of the formulation, if possible in its final ratio, with a prescribed inoculum of suitable microorganisms, storage of the inoculated formulation at a specific temperature, taking of samples from the vessel at specific intervals and determination of the number of microorganisms in the samples taken in this way. The preserving properties are adequate if, under the conditions of the test, there is a distinct reduction or optionally no increase in the germ count in the inoculated formulations after the prescribed times at the prescribed temperatures. Experimental details of the test procedure are described in the European Pharmacopea (ISBN 3-7692-2768-9; 2001 supplement to the 3rd Edition, page 421-422, chapter 5.1.3). The initial germ count (CFU/g; “0” value) was in the range of 240,000 to 300,000 in the various test series. For the tests for adequate preservation, (a) potentially synergistically active mixtures taken into account and (b), for comparison purposes, the corresponding unmixed 1,2-diols were incorporated in O/W emulsions. […] The variation in the total concentration of 1,2-diols or 1,2-diol mixtures in the O/W emulsions was compensated for by increasing or reducing the water content, so that otherwise identical formulations always comprised 100 parts by weight in total.

[2] = test system: Pseudomonas aeruginosa ATCC 9027; assay: as above; conditions: 3% diol(s) in O/W emulsion
Procedure: as §1

[3] = test system: Brevibacterium epidermidis ATCC 35514; assay: MIC, agar dilution method; conditions: ATCC35514, Mueller-Hinton agar, 18 h at 36° C.
Procedure: (§2) Petri dishes 9.0 cm in diameter were charged with 13.5 ml freshly prepared Mueller-Hinton agar (Merck, Ref. 1.05437 or Wilkins-Chalgren agar boullion, Oxoid, Ref. CM 643, supplemented with log agar-agar/liter) kept liquid at 50° C., to which the various concentrations of the diluted samples were added in 10% (V/V)=1.5 ml. Mueller-Hinton agar that contained 3% Tween80 (Merck, Ref. 8.22 187) was used for the test germ Malassezia furfur. In each case 5 ml of the samples were diluted in distilled water and made up to 10 ml. The further test concentrations of the particular dilution series, which were prepared in the form of geometric series, were prepared by progressive 1:2 dilution of this batch with distilled water. […] Two agar plates were poured per test concentration and nutrient medium. After solidification and drying (approx. 1 h at 37° C.), the test plates were inoculated in point form with, in each case, 1 μl of the test germ suspensions listed below. To check purity and identity the bacteria that grow aerobically (Brevibacterium epidermidis, Corynebacterium xerosis, Staphylococcus epidermidis) were [lacuna] on Columbia blood agar (BioMérieux, Ref. 43049). The mould Aspergillus niger, the yeast Candida albicans and the two skin fungi Trichophyton mentagrophytes and Epidermophyton floccosum were cultured on Sabouraud agar (BioMérieux, Ref. 43555). Malassezia furfur was cultured on Sabourad HLT agar with disinhibitors (addition of 3% Tween80: 1%; lecithin: 0.3%; histidine: 0.1%; Merck, Ref. 1.18368). Propionibacterium acnes was cultured on Schaedler agar (BioMérieux, Ref. 43273). Further details on the test germs can be taken from Table 5. The preparation of the test germ suspensions of the bacterial germs that grow aerobically was carried out by incubation of Mueller-Hinton broth (Merck, Ref. 1.10293) which had been inoculated with a few individual colonies of the relevant test germs, at 36° C. After a distinct turbidity had been obtained, sterile nutrient broth was added to the suspensions in such an amount that the turbidity thereof corresponded to McFarland standard 0.5 (approx. 1.5×10^8 CFU/ml). All test germ suspensions with the exception of Propionibacterium acnes were diluted again 1:10 with sterile broth and the germ count thereof was determined by the surface method using a Spiralometer (results: see Table 5). The MIC (minimum inhibitory concentration) was regarded as the lowest concentration of active compound at which macroscopically there is no growth. Minimal, barely visible growth or few small individual colonies were evaluated as inhibition.

[4] = test system: Corynebacterium xerosis ATCC 7711; assay: MIC, agar dilution method; conditions: ATCC7711, Mueller-Hinton agar, 18 h at 36° C.
Procedure: as §2

[5] = test system: Staphylococcus epidermidis ATCC 12228; assay: MIC, agar dilution method; conditions: ATCC12228, Mueller-Hinton agar, 18 h at 36° C.
Procedure: as §2

[6] = test system: Propionibacterium acnes ATCC 11829; assay: MIC, agar dilution method; conditions: Cutibacterium acnes, ATCC11829, anaerobic, Wilkins-Chalgren agar, 72 h at 30° C.
Procedure: Petri dishes 9.0 cm in diameter were charged with 13.5 ml freshly prepared Mueller-Hinton agar (Merck, Ref. 1.05437 or Wilkins-Chalgren agar boullion, Oxoid, Ref. CM 643, supplemented with log agar-agar/liter) kept liquid at 50° C., to which the various concentrations of the diluted samples were added in 10% (V/V)=1.5 ml. Mueller-Hinton agar that contained 3% Tween80 (Merck, Ref. 8.22 187) was used for the test germ Malassezia furfur. In each case 5 ml of the samples were diluted in distilled water and made up to 10 ml. The further test concentrations of the particular dilution series, which were prepared in the form of geometric series, were prepared by progressive 1:2 dilution of this batch with distilled water. […] Two agar plates were poured per test concentration and nutrient medium. After solidification and drying (approx. 1 h at 37° C.), the test plates were inoculated in point form with, in each case, 1 μl of the test germ suspensions listed below. To check purity and identity the bacteria that grow aerobically (Brevibacterium epidermidis, Corynebacterium xerosis, Staphylococcus epidermidis) were [lacuna] on Columbia blood agar (BioMérieux, Ref. 43049). […] Minimal, barely visible growth or few small individual colonies were evaluated as inhibition.

Structure (SMILES)	germ count E. coli ([1]; 0′-count (initial germ count))	germ count E. coli ([1]; 24 h) [CFU/ml]	germ count E. coli ([1]; 48 h) [CFU/ml]	germ count E. coli ([1]; 4 d) [CFU/ml]	germ count E. coli ([1]; 7 d) [CFU/ml]	germ count E. coli ([1]; 14 d) [CFU/ml]	germ count E. coli ([1]; 28 d) [CFU/ml]	germ count Ps. aeruginosa ([2]; 0′-count (initial germ count))	germ count Ps. aeruginosa ([2]; 24 h) [CFU/ml]	germ count Ps. aeruginosa ([2]; 48 h) [CFU/ml]	germ count Ps. aeruginosa ([2]; 4 d) [CFU/ml]	germ count Ps. aeruginosa ([2]; 7 d) [CFU/ml]	germ count Ps. aeruginosa ([2]; 14 d) [CFU/ml]	germ count Ps. aeruginosa ([2]; 28 d) [CFU/ml]	MIC [3] [mg/mL]	MIC [4] [mg/mL]	MIC [5] [mg/mL]	MIC [6] [mg/mL]
CCCCC(O)CO (stereo not drawn) [HE3, 1,2-hexanediol]	300,000 CFU/ml	<100	<100	0	0	0	0	290,000 CFU/ml	<100	<100	0	0	0	0	25 (≈ 212 mM)	12.5 (≈ 106 mM)	25 (≈ 212 mM)	25 (≈ 212 mM)
CCCCCCC(O)CO (stereo not drawn) [OC3, 1,2-octanediol]	300,000 CFU/ml	0	0	0	0	0	0	290,000 CFU/ml	0	0	0	0	0	0	3.12 (≈ 21.4 mM)	6.25 (≈ 42.7 mM)	12.5 (≈ 85.5 mM)	6.25 (≈ 42.7 mM)
